From BindingDB's records for doi:10.1016/j.chembiol.2004.12.010 (National Institutes of Health, 2005)
Several values for one entry are separate records, joined by “and”; a condition that tells them apart may be missing. Equal values may be shown once.

Assays:
Assay in all cases: Binding Assay
Adenosine receptor A1 = molecular target: T1, Adenosine receptor A1 (Homo sapiens, UniProt P30542)
T1 sequence (P30542 whole entry): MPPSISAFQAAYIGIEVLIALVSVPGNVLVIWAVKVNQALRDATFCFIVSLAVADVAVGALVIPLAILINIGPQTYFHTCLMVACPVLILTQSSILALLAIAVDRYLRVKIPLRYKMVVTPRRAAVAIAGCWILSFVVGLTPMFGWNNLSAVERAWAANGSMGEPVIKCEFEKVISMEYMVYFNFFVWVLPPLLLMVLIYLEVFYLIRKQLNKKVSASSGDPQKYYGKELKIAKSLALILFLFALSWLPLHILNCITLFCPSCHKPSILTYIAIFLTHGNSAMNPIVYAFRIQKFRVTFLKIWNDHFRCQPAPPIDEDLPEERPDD
Source text: (§1) Binding affinity of ligand at human adenosine receptors expressed in CHO cell.

Adenosine receptor A2a [1] = molecular target: T2, Adenosine receptor A2a (Homo sapiens, UniProt P29274)
Source text: as §1

Adenosine receptor A2b = molecular target: T3, Adenosine receptor A2b (Homo sapiens, UniProt P29275)
T3 sequence (P29275 whole entry): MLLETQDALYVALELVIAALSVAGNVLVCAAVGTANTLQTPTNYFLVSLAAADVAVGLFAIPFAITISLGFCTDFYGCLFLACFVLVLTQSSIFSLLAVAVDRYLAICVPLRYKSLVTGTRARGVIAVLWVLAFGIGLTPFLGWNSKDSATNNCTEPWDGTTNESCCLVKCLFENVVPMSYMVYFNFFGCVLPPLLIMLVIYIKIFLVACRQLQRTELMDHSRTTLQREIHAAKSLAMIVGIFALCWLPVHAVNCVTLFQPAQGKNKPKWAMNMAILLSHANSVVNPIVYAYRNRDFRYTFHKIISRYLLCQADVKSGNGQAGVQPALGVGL
Source text: as §1

Adenosine receptor A3 = molecular target: T4, Adenosine receptor A3 (Homo sapiens, UniProt P0DMS8)
T4 sequence (P0DMS8 whole entry): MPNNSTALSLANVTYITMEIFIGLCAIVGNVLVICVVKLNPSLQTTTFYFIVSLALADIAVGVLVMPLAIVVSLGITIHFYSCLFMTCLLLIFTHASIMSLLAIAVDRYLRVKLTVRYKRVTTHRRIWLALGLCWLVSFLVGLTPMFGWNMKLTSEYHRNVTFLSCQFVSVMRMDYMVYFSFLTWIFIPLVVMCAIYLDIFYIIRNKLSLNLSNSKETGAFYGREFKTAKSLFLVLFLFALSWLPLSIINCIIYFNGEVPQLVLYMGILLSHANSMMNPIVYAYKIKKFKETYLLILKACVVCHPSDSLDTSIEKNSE
Source text: as §1

Adenosine receptor A2a [2] = molecular target: T2, Adenosine receptor A2a; details: pH 7.4; 25 °C
Source text: Binding affinity of ligand at WT and mutant human A2A ARs expressed in COS7 cell.

T2 sequence (P29274 whole entry): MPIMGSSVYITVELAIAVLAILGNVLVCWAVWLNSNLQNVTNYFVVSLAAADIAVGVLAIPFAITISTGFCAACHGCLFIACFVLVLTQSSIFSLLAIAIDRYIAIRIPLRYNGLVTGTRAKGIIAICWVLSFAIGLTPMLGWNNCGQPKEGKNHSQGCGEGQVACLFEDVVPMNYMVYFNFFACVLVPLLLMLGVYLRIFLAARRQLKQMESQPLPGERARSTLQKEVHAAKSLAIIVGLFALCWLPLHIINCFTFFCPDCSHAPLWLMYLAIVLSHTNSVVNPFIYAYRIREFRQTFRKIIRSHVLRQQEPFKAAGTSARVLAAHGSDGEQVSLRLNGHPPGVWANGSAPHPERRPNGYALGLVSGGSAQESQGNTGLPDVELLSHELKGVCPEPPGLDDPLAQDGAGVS

Row | Compound | Ki (Adenosine receptor A1) [µM] | Ki (Adenosine receptor A2a [1]) [µM] | EC50 (Adenosine receptor A2b) [µM] | Ki (Adenosine receptor A3) [µM] | Ki (Adenosine receptor A2a [2])
1 | NNC(=O)[C@H]1O[C@@H](n2cnc3c(N)ncnc32)[C@H](O)[C@@H]1O | 0.171 | 2.23 | 12 | 0.378 | –
2 | CCNC(=O)[C@H]1O[C@@H](n2cnc3c(N=C(N)N)ncnc32)[C@H](O)[C@@H]1O | 0.007 | 0.628 | 0.0545 | 0.0051 | 4.51 µM and 5.68 µM and 0.773 µM and 1.14 µM
3 | NCCNC(=O)[C@H]1O[C@@H](n2cnc3c(N)ncnc32)[C@H](O)[C@@H]1O [5'-N-[(2-AMINO)ETHYL CARBOXAMIDO] ADENOSINE] | 0.245 | – | 15.6 | – | –
4 | CNC(=O)[C@H]1O[C@@H](n2cnc3c(NCCN)ncnc32)[C@H](O)[C@@H]1O [Adenosine analog, 5] | 0.775 | > 100 | > 10 | 24.6 | > 100 µM
5 | NCCCNC(=O)[C@H]1O[C@@H](n2cnc3c(N)ncnc32)[C@H](O)[C@@H]1O [Adenosine analog, 8] | > 100 | > 10 | > 10 | > 10 | –
6 | NCCCCNC(=O)[C@H]1O[C@@H](n2cnc3c(N)ncnc32)[C@H](O)[C@@H]1O [Adenosine analog, 9] | > 100 | > 100 | > 10 | > 10 | > 100 µM and 55.2 µM and 48.1 µM
7 | NCCCCCNC(=O)[C@H]1O[C@@H](n2cnc3c(N)ncnc32)[C@H](O)[C@@H]1O [Adenosine analog, 10] | > 100 | > 100 | > 10 | > 100 | > 100 µM and 124 µM
8 | Nc1ncnc2c1ncn2[C@@H]1O[C@H](C(=O)NCCO)[C@@H](O)[C@H]1O [Adenosine analog, 11] | – | – | 0.942 | – | –
9 | Cc1ccccc1CNc1ncnc2c1ncn2[C@@H]1O[C@H](C(=O)NN)[C@@H](O)[C@H]1O [Adenosine analog, 12] | > 10 | > 10 | > 100 | 0.394 | –
10 | CCNC(=O)[C@H]1O[C@@H](n2cnc3c(NCc4ccccc4C)ncnc32)[C@H](O)[C@@H]1O [Adenosine analog, 13] | 0.106 | 5.43 | > 1 | 0.0788 | –
11 | Cc1ccccc1CNc1ncnc2c1ncn2[C@@H]1O[C@H](C(=O)NCCN)[C@@H](O)[C@H]1O [Adenosine analog, 14] | > 10 | 55.9 | > 1 | > 10 | –
12 | Cc1ccccc1CNc1ncnc2c1ncn2[C@@H]1O[C@H](C(=O)NCCO)[C@@H](O)[C@H]1O [Adenosine analog, 15] | 0.368 | > 10 | 3.72 | 1.64 | –
13 | Cc1ccccc1CNc1ncnc2c1ncn2[C@@H]1O[C@H](CO)[C@@H](O)[C@H]1O [Adenosine analog, 16] | 0.0393 | 0.764 | – | 0.0472 | –
14 | CNc1nc(N)nc2c1ncn2[C@@H]1O[C@H](CO)[C@@H](O)[C@H]1O [Adenosine analog, 17] | 0.484 | > 10 | > 10 | 0.039 | > 100 µM
15 | CNc1nc(CN)nc2c1ncn2[C@@H]1O[C@H](CO)[C@@H](O)[C@H]1O [Adenosine analog, 18] | > 10 | > 10 | > 10 | 0.719 | > 100 µM
16 | CNc1nc(C(=N)N)nc2c1ncn2[C@@H]1O[C@H](CO)[C@@H](O)[C@H]1O [Adenosine analog, 19] | > 10 | > 10 | > 10 | 2.73 | > 100 µM
